Data on five compounds can be found in patent publication US11708374B2, “Preparation of condensed triazepine derivatives and their use as BET inhibitors” (DYBLY AG, priority 2018, dated 2023).

In one assay the test system is collagen1A1. The assay is described as follows: Anti-fibrotic effects: collagen1A1 production by LX2 cells treated with TGFbeta. It counts as cell-based. The note with it: 500 nM. An excerpt:
(§1) Methods of culturing LX2 cells and measurements of Collagen1A1 and alphaActin1 mRNA contents are provided in Ding et al, Proc Natl Acad Sci USA 2015, 112:15713-15718

For assay [1], the system named is Interleukin 1beta (IL-1beta), Interleukin 6 (IL6) and TNF-alpha. The assay is described as follows: LPS-stimulated cytokine production in whole human blood. The class given is cell-based. The settings on record: 10 ng/ml LPS; for inhibition at 0.6 µM: 600 nM, 24 h, read-out: Inhibition of inflammatory cytokine production. On the procedure:
BET inhibitors were added (from 10 mM DMSO solutions) to whole human blood (anti-coagulated with heparin) during incubation for 24 h at 37° C. in the presence of 10 ng/ml Lipopolysaccharide (LPS). Final DMSO concentration was below 0.01%. Cytokines production with 0.01% DMSO alone in the absence of LPS were below detection level.

The next assay concerns alphaActin1. Nature of the assay: Anti-fibrotic effects: alphaActin1 production by LX2 cells treated with TGFbeta. The class given is cell-based. The note with it: 500 nM.
From the text: as §1

In another assay the test system is KG1. The assay is described as follows: Inhibition of proliferation (Alamar Blue cell viability), KG1. It counts as cell-based. The settings on record: Homo sapiens, KG-1; AML, KG1, 72 h; read-out: Inhibition of cell growth, IC50. On the procedure:
(§2) A semi-log dilution was performed in 100% DMSO. Cells were cultured in DMEM containing 10% FCS and Penicillin/Streptomycin. For the assays, cells were seeded in 150 μL medium on a 96-well cell culture plate and incubated at 37° C. overnight before the compound was added. […] A day after cell seeding, 10 μL of prediluted compound was added to the cells (1:16 dilution). Treatment of cells with 0.1% DMSO and Staurosporine (1.0E-05 M) served as High control (100% viability) and Low control (0% viability), respectively
(§3) A day after cell seeding, the test compound was added to the medium to reach the final concentration and incubated for 72 h at 37° C. at 5% CO2 in air dependent on the medium. Subsequently 15 μL Alamar Blue reagent was added and fluorescence at 590 nm was measured after 3-5 h incubation at 37° C., 5% CO2 using a fluorometer.
(§4) Raw data were converted into percent cell viability relative to the high control (0.1% DMSO) and low control (1E-05M Staurosporine), which were set to 100% and 0%, respectively.

For the next assay, the system named is LP-1. Nature of the assay: Inhibition of proliferation (Alamar Blue cell viability), LP-1. It counts as cell-based. The settings on record: Homo sapiens; Multiple myeloma, LP-1, 72 h; read-out: Inhibition of cell growth, IC50. On the procedure:
as §2, §3, §4
On the technique in general: Resazurin is reduced to fluorescent resorufin, in cell work by metabolically active cells.

For the next assay, the system named is CCL2. The assay is described as follows: Production of the chemokine CCL2 by cultured human astrocytes (CCL2 mRNA). It counts as cell-based. The settings on record: 250 nM, 24 h. On the procedure: CCL2 mRNA content of control astrocytes, astrocytes incubated with 10 ug/ml Tumor Necrosis Factor alpha (TNFalpha) and 10 ug/ml Interferon alpha (IFNalpha) (T/I), astrocytes treated with 250 nM of “Compound 38” (referred to as “C4” in FIG. 2) and astrocytes which are pretreated with “Compound 38” (C4) for 1 hour before stimulation with T/I. Incubation period 24 h. Details on astrocyte culture and quantification of CCL2 mRNA are provided in Mizee et al. Acta Neuropathol (2014) 128:691-703. […] Co-addition of 250 nM of “Compound 38” decreased CCL2 production by 80% both in the absence and presence of TNFalpha/Interferon as shown in FIG. 2.

For another assay, the system named is HL-60. The assay is described as follows: Inhibition of proliferation (Alamar Blue cell viability), HL-60. It counts as cell-based. The settings on record: Homo sapiens; AML, HL-60, 72 h; read-out: Inhibition of cell growth, IC50. On the procedure:
as §2, §3, §4

The test system of another assay is OPM-2. The assay is described as follows: Inhibition of proliferation (Alamar Blue cell viability), OPM-2. The class given is cell-based. The settings on record: Homo sapiens; Multiple myeloma, OPM-2, 72 h; read-out: Inhibition of cell growth, IC50. Here is the method:
as §2, §3, §4

In the next assay the test system is KMS-12-BM. The assay is described as follows: Inhibition of proliferation (Alamar Blue cell viability), KMS-12-BM. The class given is cell-based. The note with it: Homo sapiens, Multiple myeloma, 72 h, read-out: Inhibition of cell growth, IC50. Here is the method: as §2, §3, §4
The next assay concerns the target BRD4 (Homo sapiens, UniProt O60885). The assay is described as follows: AlphaScreen assay, Bromodomain 4 inhibition. It counts as binding. Here is the method: AlphaScreen assays were performed as described by Philpott et al Mol Biosyst. […] YSGRGK(Ac)GGK(Ac)GLGK(Ac)GGAK(Ac)RHRK (Biotin) peptide was used in the assays. Buffer conditions used in all experiments were 25 mM HEPES, pH 7.4, 100 mM NaCl, 0.1% BSA, supplemented with 0.05% CHAPS.
In general terms: In Alpha technology, singlet oxygen from a donor bead excites a nearby acceptor bead.

The mark [2] stands for this setting: AlphaScreen, acetylated histone peptide, read-out: Potency as inhibitor of BRD4, IC-50.

Each structure is given as a SMILES string. Like-named read-outs stand apart in the source and are kept apart here.

For the compound `Cc1sc2c(c1C)C(c1ccc(Cl)cc1)=N[C@@H](CC(=O)OC(C)(C)C)c1nnc(C)n1-2` [(+)JQ1, reference compound], the “Reduction of collagen1A1 production” value in the assay with collagen1A1 is given as “reduced to an equal extent”. Besides, in assay [1], the inhibition at 0.6 µM is about 30%. The “Reduction of alphaActin1 production” value with alphaActin1 is listed as “reduced to an equal extent”.

For the compound `Cc1sc2c(c1C)C(c1ccc(Cl)cc1)=NN(C)c1nnc(C)n1-2` [Compound 38, 4-(4-chlorophenyl)-2,3,6,9-tetramethyl-6H-thieno[2,3-e][1,2,4]triazolo[3,4-c][1,2,4]triazepine], the IC50 worked out at 810 nM in the assay on KG1; 360 nM in the assay with LP-1; 810 nM in the assay with HL-60; 260 nM in the assay on OPM-2; 270 nM with KMS-12-BM; 150 nM at BRD4. Also, the “Decrease of CCL2 production” value with CCL2 (absence of TNFalpha/Interferon) and in the assay with CCL2 (presence of TNFalpha/Interferon) was 80% each time.

As for `CCOC(=O)CN1N=C(c2ccc(Cl)cc2)c2c(sc(C)c2C)-n2c(C)nnc21` [Compound 41, Ethyl 2-(4-(4-chlorophenyl)-2,3,9-trimethyl-6H-thieno[2,3-e][1,2,4]triazolo[3,4-c][1,2,4]triazepin-6-yl)acetate], the “Reduction of collagen1A1 production” value in the assay with collagen1A1 was “reduced to an equal extent”. The IC50 was 6 to 60 nM in [1] (24 h at 37° C., read-out: Inhibition of production of IL-1beta, IL6 and TNF-alpha, IC50s); 11 nM on BRD4 (setting [2]). For the same compound, the inhibition at 0.6 µM in [1] is over 80%. Further, the “Reduction of alphaActin1 production” value with alphaActin1 is recorded as “reduced to an equal extent”.

As for `Cc1sc2c(c1C)C(c1ccc(Cl)cc1)=NN(CC(=O)O)c1nnc(C)n1-2.Cl` [Compound 42, 2-(4-(4-chlorophenyl)-2,3,9-trimethyl-6H-thieno[2,3-e][1,2,4]triazolo[3,4-c][1,2,4]triazepin-6-yl)acetic acid hydrochloride], in the assay with collagen1A1, the “Reduction of collagen1A1 production” value was “less inhibition”. Moreover, the “Reduction of alphaActin1 production” value with alphaActin1 was “less inhibition”. Besides, the IC50 at BRD4 (setting [2]) is 290 nM.

As for `Cc1sc2c(c1C)C(c1ccc(Cl)cc1)=NN(CC(=O)OC(C)(C)C)c1nnc(C)n1-2` [Compound 43, tert-butyl 2-(4-(4-chlorophenyl)-2,3,9-trimethyl-6H-thieno[2,3-e][1,2,4]triazolo[3,4-c][1,2,4]triazepin-6-yl)acetate], the “Reduction of collagen1A1 production” value in the assay on collagen1A1 is given as “less inhibition”. Besides, in the assay on alphaActin1, the “Reduction of alphaActin1 production” value is given as “less inhibition”. Further, the IC50 on BRD4 (setting [2]) stood at 100 nM.

In general, inhibition refers to the change of the read-out against control, counted positive when it falls.
